Laboratory results: US20190134150A1, “THERAPEUTIC METHODS FOR EXCITATORY NEUROTOXICITY-RELATED INJURIES” (Biocells (Beijing) Biotech Co., Ltd., priority 2016, published 2019)
“And” between values parts separate entries of the source, which are not always exact repeats. Identical values can stand only once. No end group written: not given here.

How the values were obtained:
MCAO model rats = assay: Cerebral infarction volume (TTC staining) in MCAO model rats; conditions: rat, in vivo
Method: The focal cerebral ischemia-reperfusion model was prepared according to the reversible middle cerebral artery occlusion (MCAO) suture method proposed by Longa with modifications in view of the anatomical structure of the rat brain. The rats were anesthetized by intraperitoneal administration of 10% chloral hydrate at a dose of […]. After anesthetization, a cut was created at the cervical midline, and the common carotid artery (CCA), external carotid artery (ECA) and pterygopalatine artery were exposed. The head portion (0.5 cm) of a monofilament nylon fishing line (0.26 mm) was coated with paraffin and a mark was made at 20 mm. All rats were inserted through the right CCA incision, and the pterygopalatine artery was temporarily clamped to prevent mis-insertion. The length of the occlusion line was about 18-20 mm from the bifurcation of CCA depending on the animal's weight, thereby occluding middle cerebral artery on the right side. The skin was then sewed, and the tail end of the occlusion line was partially fixed to the skin. After a period of ischemia for 2 hours, the occlusion line was carefully pulled out to form a reperfusion. The procedure steps for the sham control were the same as the surgery group, except for insertion of a nylon fishing line. The body temperature was maintained at 37±0.5° C. during the ischemia period and 2 h after reperfusion.
The used animals were male adult SD rats (Vittalia) of SPF grade with body weight of 220-250 g.
The experimental animals were divided into the negative control group, sham group, model group, positive drug Enbipu group, NA-1 group, YE-NA-1 group and P6 group. A saline solution, positive drug Enbipu, NA-1 (10 mg/kg), YE-NA-1 (10 mg/kg) and P6 (10 mg/kg, 3 mg/kg and 1 mg/kg) were respectively administered to individual group of rats via tail vein injection at 1 hour after ischemia. No drugs were administered to the normal group and the sham group.
The rats were sacrificed by decapitation after scoring. The brain tissues were quickly removed and placed in a refrigerator at −20° C. After 10 minutes, the tissues were placed in a room temperature environment. The brains were placed in a rat brain section mold. After the olfactory bulb, cerebellum and low brain stem were removed, the brains were coronally cut five times at 2 mm thickness as shown in the profile to obtain six continuous raw coronal slices. Then, the brain sections were quickly placed in a 5 ml solution containing 2% TTC, and incubated at 37° C. for 30 minutes in the dark, during which the brain sections were flipped once every 5 minutes. With the TTC staining, the normal tissue would be rose red, and the infarcted tissue would be unstained and retained white. Each group of brain sections was arranged neatly, and photographed. The photos were processed by an image analysis system software and statistically analyzed. The infarction area of each brain section was calculated, and multiplied by the thickness of each brain section (2 mm). The products of the infarction area of individual brain section multiplied by the thickness were summed to obtain the cerebral infarction volume for each animal. The volumes were expressed as percentages accounting for the cerebral hemisphere to eliminate the effects of cerebral edema.

PDZ1/2 domain = assay: SPR, Biacore 3000, PDZ1/2 amine-coupled on CM5 chip, peptide as analyte, 1:1 model

In the case of “YGRKKRRQRRRKLSSIESDV [NA-1, reference compound]”, the “Mean of infarction volume percentage” value (MCAO model rats) is reported as 38.56%.

“YGRKKRRQRRRYEKLSSIESDV [YE-NA-1, reference compound]” was tested, and the “Mean of infarction volume percentage” value (MCAO model rats) was 33.96%.

For YGRKKRRQRRRYEKLTTLDTGGV [P6], the “Mean of infarction volume percentage” value (MCAO model rats) was 26.71% and 37.89% and 43.75%, the “Mean of infarction volume percentage” value (MCAO model rats; 1 mg/kg) was 41.56% and the “Reduction of infarction volume percentage vs model group” value (MCAO model rats; 1 mg/kg) was 9.57%. For the same molecule, the “Mean of infarction volume percentage” value (MCAO model rats; 3 mg/kg) was 38.34%, the “Reduction of infarction volume percentage vs model group” value (MCAO model rats; 3 mg/kg) was 16.58% and the “effect on cerebral infarction volume” value (MCAO model rats; 3 mg/kg) was “desirably reduced the cerebral infarction volume”. The “Mean of infarction volume percentage” value (MCAO model rats; 10 mg/kg) was 19.54%, the “Reduction of infarction volume percentage vs model group” value (MCAO model rats; 10 mg/kg) was 57.48% and the “reduction of cerebral infarction volume” value (MCAO model rats; 10 mg/kg) was “about 50%”.

With control chimeric peptide NA-1 the Kd (PDZ1/2 domain) was 75.3 nM.

For YGRKKRRQRRRYEKLSSIESDV [chimeric peptide YE-NA-1], the Kd (PDZ1/2 domain) was 54.4 nM.
